Assay results as given in PMC10646112, “Mechanistic insights into glycoside 3-oxidases involved in C-glycoside metabolism in soil microorganisms” (Nature Communications, 2023).

Experiments:
[1] = target: T1, PsG3Ox (Pseudarthrobacter siccitolerans, UniProt A0A024H8G7); assay: tryptophan fluorescence quenching titration of apo-enzyme; crystal structure; type: biochemical; design: gene ARTSIC4J27_4061; Apo-PsG3Ox
[2] = target: T1, PsG3Ox; assay: inhibition of D-Glc oxidation, steady-state kinetics (Lineweaver-Burk, secondary plot of slopes); type: biochemical; design: gene ARTSIC4J27_4061

T1 sequence (A0A024H8G7 1-519): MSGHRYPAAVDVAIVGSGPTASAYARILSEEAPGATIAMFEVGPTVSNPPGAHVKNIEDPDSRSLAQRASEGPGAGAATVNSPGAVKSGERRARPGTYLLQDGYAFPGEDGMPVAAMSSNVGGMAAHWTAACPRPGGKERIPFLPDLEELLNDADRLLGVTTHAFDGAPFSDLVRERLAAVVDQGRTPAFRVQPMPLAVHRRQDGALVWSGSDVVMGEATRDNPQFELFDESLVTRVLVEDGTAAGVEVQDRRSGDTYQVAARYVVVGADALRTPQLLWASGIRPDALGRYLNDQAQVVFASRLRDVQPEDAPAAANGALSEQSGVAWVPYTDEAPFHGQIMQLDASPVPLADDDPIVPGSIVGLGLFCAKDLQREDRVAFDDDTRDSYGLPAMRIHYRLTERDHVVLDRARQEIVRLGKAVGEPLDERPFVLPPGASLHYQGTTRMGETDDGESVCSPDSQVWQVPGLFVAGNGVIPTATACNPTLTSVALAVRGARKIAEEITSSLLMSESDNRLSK

Compound | Kd [1] [µM] | Ki [2] [µM]
Cc1cc2nc3c(=O)[nH]c(=O)nc-3n(C[C@H](O)[C@H](O)[C@H](O)COP(=O)(O)OP(=O)(O)OC[C@H]3O[C@@H](n4cnc5c(N)ncnc54)[C@H](O)[C@@H]3O)c2cc1C [FAD] | 0.2 | –
C[C@@H]1O[C@@H](OC[C@H]2O[C@@H](Oc3c(-c4ccc(O)c(O)c4)oc4cc(O)cc(O)c4c3=O)[C@H](O)[C@@H](O)[C@@H]2O)[C@H](O)[C@H](O)[C@H]1O [rutin] | – | 100
